Laboratory results: US6057314A, “Low molecular weight bicyclic thrombin inhibitors” (Biochem Pharma Inc., priority 1997, dated 2000)
Where two headings read alike, the source gives them in different places.

Assays:
human thrombin [1] = target: T1, human thrombin (Homo sapiens, UniProt P00734); assay: dTT assay (fibrin clotting assay, human thrombin and bovine fibrinogen); assay type: biochemical; settings: concentration required to double the clotting time
Excerpt: The clotting time was plotted against the inhibitor concentrations and the IC50 was estimated as the inhibitor concentration required to double the clotting time relative to the control.

human thrombin [2] = target: T1, human thrombin; assay: Inhibition of amidolytic activity of human thrombin (Ki, fluorogenic substrate Tos-Gly-Pro-Arg-AMC); assay type: biochemical
Protocol: In an assay to determine the inhibitory dissociation constant, Ki, for a given compound, a chromogenic or fluorogenic substrate of thrombin would be added to a solution containing a test compound and thrombin; the resulting catalytic activity of the enzyme would be spectrophotometrically determined. This type of assay is well known to those skilled in the art.
Determination of K1 Values for Heterocyclics
The steady-state velocity was then measured for a few minutes. The compounds of this invention were also pre-incubated with thrombin for 20 minutes at room temperature before adding the substrate.

human thrombin [3] = target: T1, human thrombin; assay: Fibrin clot assay (human plasma, turbidity); assay type: biochemical; settings: Table 1, 1 nM thrombin, at 30 minutes
Protocol: The fibrin clot assay was performed essentially as described by Krtenansky et al, FEBS, 1987, 211:10. A serial dilution of the inhibitor was prepared in 50 mM tri HCl buffer (pH 7.8 at 23° C.) containing 0.1 M NaCl and 0.1% (w/v) polyethylene glycol 8000. Human plasma (60 μL, collected in 3.8% sodium citrate, blood/anticoagulate 9:1) was added to microtiter wells (microtiter plate, Falcon) containing 100 μL of various inhibitor dilutions. The solution was mixed after which 50 μL of human thrombin (1 nM final conc.) was added and mixed for 15 seconds. The turbidity of the clot was immediately monitored by microplate autoreader (Dynateck MR 5000) at 405 nm and recorded every 3 min. The maximal turbidity in the absence of inhibitors was reached within 60 min. IC50 values were calculated at 30 minutes as the inhibitor concentration that gave half the optical density of the control.

[4] = tested on: washed platelets from rats; assay: Platelet aggregation (washed rat platelets, thrombin stimulated); assay type: cell-based; settings: Table 1, suspension of washed platelets from rats, human thrombin 0.1 IU/mL, read-out: Antiplatelet activity, Aggregation (IC50)
Protocol: (§1) Platelet Aggregation and Secretion Rat blood was collected into ACD (6/1 v/v) by cardiac puncture. Suspensions of washed platelets were prepared as described by […] et al, (Br. J. Haematol. 1970, 19:7 and Proc. Soc. Exp. Biol. Med. 1971, 136:1021). […] Platelet counts were adjusted to 5000,000/ μL. Platelet aggregation was recorded at 37° C. in an aggregometer (BioData PAP-4) at a stirring speed of 1,100 rpm by measuring the variations of light transmission. […] IC50 values represent the concentration that was necessary to inhibit platelet aggregation or secretion to 50% of the control.

[5] = tested on: washed platelets from rats; assay: Platelet secretion (14C-serotonin, 5-HT, release from washed rat platelets, thrombin stimulated); assay type: cell-based; settings: Table 1, human thrombin 0.1 IU/mL, read-out: Antiplatelet activity, 5-HT Secretion (IC50)
Protocol: as §1, with “μL. To permit measurement of the extent of release of the contents of the dense granules, the platelets were labelled in the first washing solution with ^14 C-serotonin (5-HT) (1 μCi/10 mL of washing fluid) and release of ^14 C-serotonin was determined as described in Holmsen et al, (Enzymology, 1989, 169:206). […] (5 μM final conc.) was added to present the reuptake of released serotonin.” for “μL.”

carotid artery in rats = assay: FeCl3 induced carotid arterial injury model (arterial thrombosis) in rats, time to occlusion; assay type: in vivo, rat (Sprague-Dawley); settings: Table 2
Protocol: Arterial Thrombosis Model
FeCl3 Induced Carotid Arterial Injury Model
Animals were laid on a 37° C. heating pad. The carotid artery was exposed through a midline cervical incision. Careful blunt dissection was used to isolate the vessel from the carotid sheath. […] A temperature probe (Physitemp*MT23/3) was placed between one of the pieces of tubing and the artery. Injury was induced by topical application on the carotid artery above the temperature probe of a small disc (3 mm dia.) of Whatman* No. 1 filter paper previously dipped in a 35% solution of FeCl3 […]. The vessel temperature was monitored for 60 minutes after application of FeCl3 as an indication of blood flow.
The time between the FeCl3 application and the time at which the vessel temperature decreased abruptly (>2.4° C.) was recorded as the time to occlusion of the vessel. Inhibitor compounds were given as an iv bolus (mg/kg) followed immediately by an iv infusion (μg/kg/min. via femoral vein). The dose of inhibitor needed to double the time to occlusion in comparison to control animals in which injury was induced in the absence of inhibitor was determined.

[6] = Table 1, read-out: Ki (inhibitory dissociation constant for human thrombin)
[7] = ivb + inf 0.75-50 (iv bolus mg/kg, infusion μg/kg/min)

CCCC(=O)C(CCCNC(=N)N)NC(=O)[C@@H]1CSC2CC[C@@H](Cc3ccccc3)C(=O)N21 (stereo partly drawn) [Compound 0005, 6S-benzylhexahydro-5-oxo-5H-thiazolo[3,2-a]pyridine-3R-carboxamido (propyl ketoarginine)]
IC50 (human thrombin [1]; Table 1, read-out: dTT IC50): 47 µM | Ki (human thrombin [2]; [6]): 4 µM | IC50 (human thrombin [3]): > 450 µM

CCCCC(=O)C(CCCNC(=N)N)NC(=O)[C@@H]1CSC2CC[C@@H](Cc3ccccc3)C(=O)N21 (stereo partly drawn) [Compound 0010, 6S-benzylhexahydro-5-oxo-5H-thiazolo[3,2-a]pyridine-3R-carboxamido (butyl ketoarginine)]
IC50 (human thrombin [1]; Table 1, read-out: dTT IC50): 89.5 µM | Ki (human thrombin [2]; [6]): 4.6 µM | IC50 (human thrombin [3]): > 450 µM | IC50 [4]: 21 µM | IC50 [5]: 19 µM

COC(=O)CCC(=O)C(CCCNC(=N)N)NC(=O)[C@@H]1CSC2CC[C@@H](Cc3ccccc3)C(=O)N21 (stereo partly drawn) [Compound 0015, 6S-benzylhexahydro-5-oxo-5H-thiazolo[3,2-a]pyridine-3R-carboxamido(propylcarbmethoxyketoarginine)]
IC50 (human thrombin [1]; Table 1, read-out: dTT IC50): 162 µM | Ki (human thrombin [2]; [6]): 16 µM | IC50 (human thrombin [3]): > 450 µM | IC50 [4]: > 100 µM | IC50 [5]: > 100 µM

N=C(N)NCCCC(NC(=O)[C@@H]1CSC2CC[C@@H](CC3CCCCC3)C(=O)N21)C(=O)Cc1ccccc1 (stereo partly drawn) [Compound 0020, 6S-cyclohexymethyl hexahydro-5-oxo-5H-thiazolo[3,2-a]pyridine-3R-carboxamido(benzylketoarginine)]
IC50 (human thrombin [1]; Table 1, read-out: dTT IC50): 22 µM | Ki (human thrombin [2]; [6]): 2.2 µM | IC50 (human thrombin [3]): > 450 µM | IC50 [4]: 18 µM | IC50 [5]: 14.2 µM

COC(=O)CCC1(C(CCCNC(=N)N)NC(=O)[C@@H]2CSC3CC[C@@H](CC4CCCCC4)C(=O)N32)SCCS1 (stereo partly drawn) [Compound 0025, 6S-cyclohexyl methyl hexahydro-5-oxo-5H-thiazolo[3,2-a]pyridine-3R-carboxamido(carbmethoxypropylcyclodithioketalarginine)]
IC50 (human thrombin [1]; Table 1, read-out: dTT IC50): > 625 µM | Ki (human thrombin [2]; [6]): 53 µM | IC50 (human thrombin [3]): > 450 µM | IC50 [4]: > 100 µM | IC50 [5]: > 100 µM

N=C(N)NCCC[C@H](NC(=O)[C@@H]1CSC2CC[C@@H](CC3CCCCC3)C(=O)N21)C(=O)N1CCCC[C@@H]1C(=O)O (stereo partly drawn) [Compound 0030, 6S-cyclohexylmethyl hexahydro-5-oxo-5H-thiazolo[3,2-a]pyridine-3R-carboxamido((S)-Arg-(R)-pipecolilic acid)]
IC50 (human thrombin [1]; Table 1, read-out: dTT IC50): 67 µM | Ki (human thrombin [2]; [6]): 8.6 µM | IC50 (human thrombin [3]): 320 µM | IC50 [4]: > 100 µM | IC50 [5]: > 100 µM

N=C(N)NCCCC(NC(=O)[C@@H]1CSC2CC[C@@H](Cc3ccccc3)C(=O)N21)C1(CCC(N)=O)SCCS1 (stereo partly drawn) [Compound 0035, 6S-benzylhexahydro-5-oxo-5H-thiazolo[3,2-a]pyridine-3R-carboxamido(carboxamidopropylcyclodithioketalarginine)]
IC50 (human thrombin [1]; Table 1, read-out: dTT IC50): 319 µM | Ki (human thrombin [2]; [6]): 34 µM | IC50 (human thrombin [3]): > 450 µM | IC50 [4]: > 100 µM | IC50 [5]: > 100 µM

N=C(N)NCCC[C@H](NC(=O)[C@@H]1CSC2CC[C@@H](CC3CCCCC3)C(=O)N21)C(=O)N1CCCC(C(N)=O)C1 (stereo partly drawn) [Compound 0040, 6S-cyclohexylmethylhexahydro-5-oxo-5H-thiazolo[3,2-a]pyridine-3R-carboxamido((S)-Argnipecotamide)]
IC50 (human thrombin [1]; Table 1, read-out: dTT IC50): 207 µM | Ki (human thrombin [2]; [6]): 19 µM | IC50 (human thrombin [3]): > 450 µM | IC50 [4]: > 100 µM | IC50 [5]: > 100 µM

N=C(N)NCCC[C@H](NC(=O)[C@@H]1CSC2CC[C@@H](CC3CCCCC3)C(=O)N21)C(=O)N1CCC(C(N)=O)CC1 (stereo partly drawn) [Compound 0045, 6S-cyclohexylmethylhexahydro-5-oxo-5H-thiazolo[3,2-a]pyridine-3R-carboxamido((S)Argisonipecotamide)]
IC50 (human thrombin [1]; Table 1, read-out: dTT IC50): 415 µM | Ki (human thrombin [2]; [6]): 74 µM | IC50 (human thrombin [3]): > 450 µM

N=C(N)NCCCC(NC(=O)[C@@H]1CSC2CC[C@@H](Cc3ccccc3)C(=O)N21)C1(CCCCC(N)=O)SCCS1 (stereo partly drawn) [Compound 0050, 6S-benzylhexahydro-5-oxo-5H-thiazolo[3,2-a]pyridine-3R-carboxamido(carboxamidopentylcyclodithioketalarginine)]
Ki (human thrombin [2]; [6]): 62 µM | IC50 (human thrombin [3]): > 450 µM

N=C(N)NCCCC(NC(=O)[C@@H]1CSC2CC[C@@H](CC3CCCCC3)C(=O)N21)C(=O)CSCC(=O)O (stereo partly drawn) [Compound 0065, 6S-cyclohexylmethylhexahydro-5-oxo-5H-thiazolo[3,2-a]pyridine-3R-carboxamido(1-carboxy-3-thiobutylketoarginine)]
IC50 (human thrombin [1]; Table 1, read-out: dTT IC50): 42 µM | Ki (human thrombin [2]; [6]): 32.7 µM | IC50 (human thrombin [3]): 200 µM | IC50 [4]: 47.5 µM | IC50 [5]: 52 µM

N=C(N)NCCCC(NC(=O)[C@@H]1CSC2CC[C@@H](CC3CCCCC3)C(=O)N21)C(=O)C[n+]1ccc2ccccc2c1 (stereo partly drawn) [Compound 0080, 6S-cyclohexylmethylhexahydro-5-oxo-5H-thiazolo[3,2-a]pyridine-3R-carboxamido(iso-quinoliniummethylketoarginine)]
IC50 (human thrombin [1]; Table 1, read-out: dTT IC50): 0.375 µM | Ki (human thrombin [2]; [6]): 0.048 µM | IC50 [4]: 0.4 µM | IC50 [5]: 0.38 µM

N=C(N)NCCCC(NC(=O)[C@@H]1CSC2CC[C@@H](CC3CCCCC3)C(=O)N21)C(=O)CCC(=O)N[C@@H](Cc1ccccc1)C(=O)N[C@@H](CCCNC(=N)N)C(N)=O (stereo partly drawn) [Compound 0090, 6S-cyclohexylmethylhexahydro-5-oxo-5H-thiazolo[3,2-a]pyridine-3R-carboxamido((propylketo)Arg--Phe--Arg--NH2)]
IC50 (human thrombin [1]; Table 1, read-out: dTT IC50): 0.33 µM | Ki (human thrombin [2]; [6]): 0.031 µM

COC(=O)CCC(=O)C(CCCNC(=N)N)NC(=O)[C@@H]1CSC2CC[C@@H](Cc3ccccc3)C(=O)N21 (stereo partly drawn) [Compound 0100, 6S-benzylhexahydro-5-oxo-5H-thiazolo[3,2-a]pyridine-3R-carboxamido(propylcarbmethoxyketoarginine)]
IC50 (human thrombin [1]; Table 1, read-out: dTT IC50): 165 µM | Ki (human thrombin [2]; [6]): 19 µM

N=C(N)NCCCC(NC(=O)[C@@H]1CC[C@H]2CN(C(=O)c3ccccc3)CC(=O)N21)C(=O)c1nccs1 (some centres unmarked) [Compound 0335, 2-Benzoyl-4-oxo-octahydro-pyrrolo[1,2-a]pyrazine-6-carboxylic acid[4-guanidino-1-(thiazole-2-carbonyl)-butyl]-amide]
IC50 (human thrombin [1]; Table 2, read-out: dTT): 0.138 µM | Ki (human thrombin [2]; Table 2, read-out: Ki): 0.025 µM | M.O.T (min)+/-sem (carotid artery in rats; ivb + inf 0.5-30 (iv bolus mg/kg, infusion μg/kg/min)): 41.5 ± 7.27 min | M.O.T (min)+/-sem (carotid artery in rats; [7]): 45.8 ± 14.2 min

N=C(N)NCCCC(NC(=O)[C@@H]1CSCC2CCCC(=O)N21)C(=O)c1nccs1 (some centres unmarked) [Compound 0915, 6-Oxo-octahydro-pyrido[2,1-c][1,4]thiazine-4-carboxylic acid[4-guanidino-1-(thiazole-2-carbonyl)-butyl]-amide]
Ki (human thrombin [2]; Table 2, read-out: Ki): 1.6 µM | M.O.T (min)+/-sem (carotid artery in rats; [7]): 15+/-1,3 min
